These results are taken from patent US7879115B2, “Method for using a static electric field to induce crystallization and to control crystal form” (Intellectual Ventures Holding 19, LLC, priority 2004, dated 2011).

Where two headings read alike, the source gives them in different places.

Data set [1] in a line: Static (DC) electric field induced nucleation of aged supersaturated aqueous solutions; polymorph by x-ray powder diffraction. The format is physicochemical. Conditions: for timescale on which macroscopic crystals form: supersaturated aqueous solution subjected to static electric field; for percent of the exposed solutions that nucleated within the 10-minute exposure time: 6×10^5 V/m DC field, γ glycine. Here is the method:
Great care was taken to exclude dust from samples. Supersaturated solutions were generated by heating the tubes to 62-64° C. and holding them at that temperature in an ultrasonicator overnight.
A chamber was constructed consisting of two brass electrodes separated by a 5 mm insulating gap, with a hole drilled down through the center, parallel to the gap-electrode interface, with a diameter large enough to accommodate the test tube, to create a high voltage chamber. Test tubes containing the aged solutions were placed in the high voltage chamber.
A DC voltage was applied across the electrodes, large enough to produce electric fields in the range of 400,000 to 800,000 V/m. Tests tubes containing the aged solutions were placed in the high-voltage chamber. […] If crystals formed in the test tubes, the crystals were removed from the solution and dried. The structure of these crystals was analyzed by grinding up the crystal into a powder and obtaining an x-ray powder diffraction pattern.
(§1) The supersaturated solutions were in the concentration range of 5.5 to 6.0 molal. […] These solutions had supersaturations (SS) ranging from 1.85 to 2.0; SS=c/csat, where csat is the saturation concentration.
Solutions were aged for 2 to 5 weeks and exposed to a 6×10^5 V/m DC field for 10 minutes. Semi-cylindrical electrodes were constructed from a 5 cm×5 cm×5.5 cm block of brass, with the center drilled out so that the sample tubes would fit snugly, and then split in half and material removed to create a 5 mm gap, as shown in FIG. 1. […] All sharp edges were rounded in the actual electrodes. The electrodes are insulated and held firmly in position by Delrin plates, screwed together to make a covered box, with 5 mm thick spacers to hold the cylindrical electrodes at the proper spacing. There are two long narrow gaps in the insulation, matching the electrode gap 20, so that most of the length of the sample tube is visible from either side, and there is a small hole in the bottom insulating plate, with a mount for an optical fiber. A Glassman EH regulated power supply provided 0-15 kV DC.
A low power monitoring continuous-wave laser beam at a wavelength of 532 nm, defocused in one direction with a cylindrical lens to generate a pencil-shaped beam, was directed through the electrode gap 20 and illuminated the length of the sample tube. The transmitted light was imaged on white paper. Light scattered perpendicular to the beam was collected with an optical fiber attached at the bottom of the cell and monitored with a power meter.
(§2) Crystals formed in the test tubes were removed from the solution and dried. The structure of these crystals was analyzed by grinding up the crystal into a powder and obtaining an x-ray powder diffraction pattern.

The conditions of data set [2]: average charge on a glycine molecule is zero; cited from earlier work.
The conditions of data set [3]: room temperature, approximately 20° C., water; cited from earlier work.
The procedure of data set [4]: as §1, §2
Towler, C. S. et al., Journal of the American Chemical Society, Vol. 126, pp. 13347-13353 (2004).

The conditions of data set [5]: supersaturated aqueous solutions. The source says:
Such species, when subjected to a DC electric field, will tend to migrate toward the electrode with the opposite charge, effectively increasing the supersaturation near the electrode, which in itself can be responsible for inducing nucleation.

As to `C[C@H](N)C(=O)O` [L-alanine], in data set [1], the “timescale on which macroscopic crystals form” value is “minutes”.
Regarding `NCC(=O)O` [glycine], the “isoelectric point (pH)” value in data set [2] is 6.0. The saturation concentration csat in data set [3] was 3.0 molal. The “percent of the exposed solutions that nucleated within the 10-minute exposure time” value in data set [1] (1.85 SS, after 16 days aging) stood at 24%; in data set [1] (1.9-2.0 SS, after 14 days aging), 33%; in data set [1] (1.9-2.0 SS, after 36 days aging), 40%. Besides, the “% samples mixed α + γ” value worked out at 0% in data set [1] (SS 1.85, DC field); 0% in data set [1] (SS 1.9–2.0, DC field); 0% in data set [4] (SS 1.85, Spontaneous); 27% in data set [4] (SS 1.9–2.0, Spontaneous). Besides, the “% samples pure α” value was found to be 50% in data set [1] (SS 1.85, DC field); 0% in data set [1] (SS 1.9–2.0, DC field); 86% in data set [4] (SS 1.85, Spontaneous); 13% in data set [4] (SS 1.9–2.0, Spontaneous). The “% samples pure γ” value was determined as 50% in data set [1] (SS 1.85, DC field); 100% in data set [1] (SS 1.9–2.0, DC field); 14% in data set [4] (SS 1.85, Spontaneous); 60% in data set [4] (SS 1.9–2.0, Spontaneous). Besides, the “time until crystallization observed” value in data set [1] (electric field strength 600,000 V/m) was in the range of 30 to 90 min. In addition, the “induction of nucleation by field exposure” value in data set [1] (field of 400,000 V/m, aged solutions) is recorded as “not sufficient to induce nucleation”. Besides, the “timescale on which macroscopic crystals form” value in data set [1] is recorded as “hours”. Also, the “Spontaneous nucleation rate for a ten-minute time window” value in data set [4] (1.85 SS, no field) is listed as 0.02%. Also, the “pH of aqueous glycine solutions exposed to DC fields” value in data set [5] is 6.4-6.5.
